# Data published in patent US20240000950A1, “THERAPEUTIC CURE-PRO COMPOUNDS FOR TARGETED DEGRADATION OF BET DOMAIN PROTEINS, AND METHODS OF MAKING AND USING THEM” (CORNELL UNIVERSITY, priority 2020, published 2024).
# Entries after “also recorded” stand apart in the source; their conditions may differ.
# Experiments:
# [1] = tested on: MV-4-11 cells; assay: CellTiter-Glo cell viability, MV-4-11 cells; type: cell-based
# Description: All cell lines were purchased from ATCC or DSMZ and grown at 37° C. with 5% C02. Human HeLa cells were cultured in complete growth medium (Dulbecco's modified Eagle's medium (DMEM) supplemented with 10% FBS); MCF7 cells were cultured in complete growth medium (Dulbecco's modified Eagle's medium (DMEM) supplemented with 10% FBS and 0.01 mg/ml human recombinant insulin (Sigma Aldrich); Namalwa and MOLM-13 cells were cultured in complete growth medium (RPMI 1640 medium supplemented with 10% FBS); MV-4-11 were cultured in complete growth medium (Iscove's Modified Dulbecco's medium, supplemented with 10% FBS); HCT116 cells were cultured in complete growth medium (McCoy's 5a Medium supplemented with 10% FBS). For cellular degradation of BRD4 studies, cells were seeded in a 12-well plate at 70-80% confluency, allowed to attach overnight, and incubated with the indicated compounds for the indicated time. When indicated, a 15-minute pretreatment with 10 μM pomalidomide, 10 μM VHL298, 10 μM Nutlin3a, 1 μM MG-132 or 1 μM Carfilzomib was performed before the addition of CURE-PROs. For washout studies, after CURE-PRO treatment, media was aspirated and incubated with complete medium for the indicated time before lysis.
# CellTiter-Glo® 2.0 Cell Viability Assay (Promega) was carried out following the manufacturer's recommendations. Cells were seeded at a density of 1000 cells/well in a white 96 well plates (Corning, #3917) in a total volume of 100 μl with respective monomers, combinations of BRD ligands together with E3 ligase ligands or vehicle control treatment. After a 72 h incubation, 100 ul of the CellTiter-Glo® substrate was added per well and luminescence was read on a Spectramax M5 (Molecular Devices). Dose-response curves were generated using Graphpad Prism software.
# MV-4-11 cells (5×104) were treated for 24 hours with the sample compounds solubilized in DMSO. The compounds were added at 1 nM-100 μM each. Cellular viability was determined using the CellTiter-Glo® Luminescent Cell Viability Assay (Promega) described above. FIGS. 19-22 depict the CURE-PRO-mediated loss of cellular viability for BRD monomers (JQ1 derivatives comprising of catechol linkers), and CRBN ligand, 8049 (pomalidomide derivatives comprising boronic acid linkers) combined in a 1:1 ratio.
# MV-4-11 cells (1×104) were treated for 72 hours with the compounds solubilized in DMSO. Compounds were added at 10 nM-100 μM each. Cellular viability was determined using the CellTiter-Glo® Luminescent Cell Viability Assay (Promega) described above. FIGS. 47-54 depict the CURE-PRO-mediated loss of cellular viability for BRD monomers (JQ1 derivatives comprising of boronic acid linkers), and CRBN ligands, 8046, 8047, and 8066 (pomalidomide derivatives comprising diol linkers) combined in a 1:1 ratio.
# [2] = target: BRD4 (Homo sapiens, UniProt O60885); assay: Summary of E3 ligase directed degradation of BRD4, estimated from Western Blot or WES (Tables 1-6); type: cell-based; set-up: endogenous in cells; host or cells: HeLa, MCF7 or HCT116; conditions: for Degradation of BRD4, combination with CRBN ligand [drawing 457]: aryl-boronic acid-containing CRBN ligand drawn as drawing 457 (by the text apparently 8048)
# Description: HeLa, MCF7, or HCT116 cells (2.5-3×10^6) were treated for 24 hours with the indicated compounds solubilized in DMSO. The cells were washed in ice-cold PBS and were then lysed in RIPA lysis buffer (150 mM NaCl, 5 mM EDTA, 1% NP-40, 0.5% sodium deoxycholate, 0.1% SDS, 50 mM Tris, pH 8.0) with Roche protease inhibitor complete cocktail and phosphatase inhibitors (10 mM sodium fluoride, 10 mM sodium pyrophosphate, 1 mM sodium orthovanadate and 20 mM β-glycerophosphate). The total protein concentrations were determined by Bradford Protein Assay and 10-20 μg of protein was loaded onto 4-15% Tris-Glycine gradient gels (Biorad). After standard gel electrophoresis, the separated proteins were transferred to PVDF membrane by wet transfer. The immunoblots were then blocked for 1 hour in 5% skim milk in TBST or 5% BSA in TBST, according to manufacturer's instructions, before an overnight incubation at 4° C. with indicated antibodies and membranes. Membranes were then incubated with the appropriate horseradish peroxidase-conjugated secondary antibodies (1:5,000 dilution) for 1 h at room temperature and the bands were visualized using the Clarity Max Western ECL Substrate (Biorad) and the ChemiDoc Imaging System (Biorad). Signal was detected with ECL Western Blotting Substrate (Pierce) and X-ray film processed with a Konica SRX-101 X-ray film processor or captured by Bio-Rad's Chemidoc Imaging system.
# WES Simple analysis was performed on WES system (ProteinSimple-Biotechne) according to the manufacturer's instructions. Total protein concentrations of cell lysates were determined by the Pierce BCA kit (Thermo Fisher). 3 μL of 0.3 μg/uL of the protein lysate was loaded onto a 12- to 230-kDa WES assay plate (ProteinSimple) where 300 nL sample was withdrawn through a capillary, subjected to electrophoretic separation of proteins by size, and followed by the simultaneous, HRP-based detection of proteins using the Anti-Rabbit Detection Module (Proteinsimple: #DM-001). The electropherograms were checked then the automatic peak detection was manually corrected if it was required.
# A black check mark indicates efficacy of 30% to 70% or higher protein degradation.
# [3] = 72 h, 10 nM-100 μM, cotreated 1:1 with each of CRBN ligands 8066, 8046 and 8047, compared to monomers alone
smiles,measurement,setting,value
"CCNC(=O)C[C@@H]1N=C(c2ccc(Cl)cc2)c2cc(OCCCCC(=O)Nc3cccc(B(O)O)c3)ccc2-n2c(C)nnc21 [BRD-E20, (3-(5-(((4S)-6-(4-chlorophenyl)-4-(2-(ethylamino)-2-oxoethyl)-1-methyl-4H-benzo[f][1,2,4]triazolo[4,3-a][1,4]diazepin-8-yl)oxy)pentanamido)phenyl)boronic acid]",toxicity / loss of cellular viability (CellTiter-Glo),[1]; [3],reduced viability; also recorded: increased toxicity
same,"Degradation of BRD4, combination with CRBN ligand [drawing 422]","[2]; Table 1, CRBN ligand drawn as drawing 422 (by the text apparently 8066)",✓ (A black check mark indicates efficacy of 30% to 70% or higher protein degradation)
same,"Degradation of BRD4, combination with CRBN ligand [drawing 397]","[2]; Table 1, aromatic 1,2-diol- or hindered cis-1,2-diol-containing CRBN ligand drawn as drawing 397 (by the text apparently 8046)",✓ (A black check mark indicates efficacy of 30% to 70% or higher protein degradation)
same,"Degradation of BRD4, combination with MDM2 ligand [drawing 430]","[2]; Table 2, aromatic 1,2-diol-containing MDM2 ligand drawn as drawing 430 (by the text apparently 8313)",✓ (A black check mark indicates efficacy of 30% to 70% or higher protein degradation)
same,"Degradation of BRD4, combination with MDM2 ligand [drawing 431]","[2]; Table 2, aromatic 1,2-diol-containing MDM2 ligand drawn as drawing 431 (by the text apparently 8314)",✓ (A black check mark indicates efficacy of 30% to 70% or higher protein degradation)
same,"Degradation of BRD4, combination with VHL ligand [drawing 442]","[2]; Table 3, aromatic 1,2-diol-containing VHL ligand drawn as drawing 442 (by the text apparently 8305)",✓ (A black check mark indicates efficacy of 30% to 70% or higher protein degradation)
"COc1ccc2c(c1)C(c1ccc(Cl)cc1)=N[C@@H](CC(=O)Nc1cccc(B(O)O)c1)c1nnc(C)n1-2 [BRD-E73, (3-(2-((4S)-6-(4-chlorophenyl)-8-methoxy-1-methyl-4H-benzo[f][1,2,4]triazolo[4,3-a][1,4]diazepin-4-yl)acetamido)phenyl)boronic acid]",toxicity / loss of cellular viability (CellTiter-Glo),[1]; [3],reduced viability; also recorded: increased toxicity
"COc1ccc2c(c1)C(c1ccc(Cl)cc1)=N[C@@H](CC(=O)NCCCCCNC(=O)c1cccc(O)c1O)c1nnc(C)n1-2 [BRD-N8, N-(5-(2-((4S)-6-(4-chlorophenyl)-8-methoxy-1-methyl-4H-benzo[f][1,2,4]triazolo[4,3-a][1,4]diazepin-4-yl)acetamido)pentyl)-2,3-dihydroxybenzamide]",toxicity / loss of cellular viability (CellTiter-Glo),"[1]; 1 nM-100 μM, cotreated 1:1 with CRBN ligand 8049",a concentration-dependent loss in cellular viability was observed; also recorded: increased toxicity
COc1ccc2c(c1)C(c1ccc(Cl)cc1)=N[C@@H](CC(=O)NCCNC(=O)Cc1ccc(O)c(O)c1)c1nnc(C)n1-2 [BRD-N30],"Degradation of BRD4, combination with CRBN ligand [drawing 457]",[2]; Table 4,✓ (A black check mark indicates efficacy of 30% to 70% or higher protein degradation)
"CCNC(=O)C[C@@H]1N=C(c2ccc(Cl)cc2)c2cc(OCCOCCNC(=O)c3ccc(O)c(O)c3)ccc2-n2c(C)nnc21 [BRD-N38, N-(2-(2-(((4S)-6-(4-chlorophenyl)-4-(2-(ethylamino)-2-oxoethyl)-1-methyl-4H-benzo[f][1,2,4]triazolo[4,3-a][1,4]diazepin-8-yl)oxy)ethoxy)ethyl)-3,4-dihydroxybenzamide]","Degradation of BRD4, combination with CRBN ligand [drawing 457]",[2]; Table 4,✓ (A black check mark indicates efficacy of 30% to 70% or higher protein degradation)
CCNC(=O)C[C@@H]1N=C(c2ccc(Cl)cc2)c2cc(OCCOCCOCCNC(=O)c3ccc(O)c(O)c3)ccc2-n2c(C)nnc21 [BRD-N40],"Degradation of BRD4, combination with VHL ligand [drawing 465]","[2]; Table 6, aryl-boronic acid-containing VHL ligand drawn as drawing 465",✓ (A black check mark indicates efficacy of 30% to 70% or higher protein degradation)
COc1ccc2c(c1)C(c1ccc(Cl)cc1)=N[C@@H](CC(=O)NCCOCCOCCOCCNC(=O)c1ccc(O)c(O)c1)c1nnc(C)n1-2 [BRD-N44],"Degradation of BRD4, combination with CRBN ligand [drawing 457]",[2]; Table 4,✓ (A black check mark indicates efficacy of 30% to 70% or higher protein degradation)
CCNC(=O)C[C@@H]1N=C(c2ccc(Cl)cc2)c2cc(-c3ccc4cc(O)c(O)cc4c3)ccc2-n2c(C)nnc21 [BRD-N67],"Degradation of BRD4, combination with CRBN ligand [drawing 457]",[2]; Table 4,✓ (A black check mark indicates efficacy of 30% to 70% or higher protein degradation)
same,"Degradation of BRD4, combination with CRBN ligand [drawing 458]","[2]; Table 4, aryl-boronic acid-containing CRBN ligand drawn as drawing 458 (by the text apparently 8049)",✓ (A black check mark indicates efficacy of 30% to 70% or higher protein degradation)
COc1ccc2c(c1)C(c1ccc(Cl)cc1)=N[C@@H](CC(=O)Nc1ccc(O)c(O)c1)c1nnc(C)n1-2 [BRD-N68],"Degradation of BRD4, combination with CRBN ligand [drawing 457]",[2]; Table 4,✓ (A black check mark indicates efficacy of 30% to 70% or higher protein degradation)
COc1ccc2c(c1)C(c1ccc(Cl)cc1)=N[C@@H](CC(=O)NCCOCCOCCOCCOCCNC(=O)c1ccc(O)c(O)c1)c1nnc(C)n1-2 [BRD-N69],"Degradation of BRD4, combination with CRBN ligand [drawing 457]",[2]; Table 4,✓ (A black check mark indicates efficacy of 30% to 70% or higher protein degradation)
"CCNC(=O)C[C@@H]1N=C(c2ccc(Cl)cc2)c2cc(OCCOCCOCCOCCOCCOCCNC(=O)c3ccc(O)c(O)c3)ccc2-n2c(C)nnc21 [BRD-N70, N-(17-(((4S)-6-(4-chlorophenyl)-4-(2-(ethylamino)-2-oxoethyl)-1-methyl-4H-benzo[f][1,2,4]triazolo[4,3-a][1,4]diazepin-8-yl)oxy)-3,6,9,12,15-pentaoxaheptadecyl)-3,4-dihydroxybenzamide]","Degradation of BRD4, combination with CRBN ligand [drawing 457]",[2]; Table 4,✓ (A black check mark indicates efficacy of 30% to 70% or higher protein degradation)
"CCNC(=O)C[C@@H]1N=C(c2ccc(Cl)cc2)c2cc(OCCOCCOCCOCCOCCOCCNC(=O)c3cccc(O)c3O)ccc2-n2c(C)nnc21 [BRD-N71, N-(17-(((4S)-6-(4-chlorophenyl)-4-(2-(ethylamino)-2-oxoethyl)-1-methyl-4H-benzo[f][1,2,4]triazolo[4,3-a][1,4]diazepin-8-yl)oxy)-3,6,9,12,15-pentaoxaheptadecyl)-2,3-dihydroxybenzamide]","Degradation of BRD4, combination with CRBN ligand [drawing 457]",[2]; Table 4,✓ (A black check mark indicates efficacy of 30% to 70% or higher protein degradation)
same,"Degradation of BRD4, combination with MDM2 ligand [drawing 464]","[2]; Table 5, aryl-boronic acid-containing MDM2 ligand drawn as drawing 464 (apparently 8312)",✓ (A black check mark indicates efficacy of 30% to 70% or higher protein degradation)
O=C1CCC(N2C(=O)c3cccc(CNC(=O)c4cccc(B(O)O)c4)c3C2=O)C(=O)N1 (centres unmarked) [compound 8049],loss of cellular viability (CellTiter-Glo),"[1]; 1 nM-100 μM, monomer alone",little loss of viability was observed
